Experiments:
[1] = biological target: T1, STAT6 (Homo sapiens, UniProt P42226); experiment: STAT6 Reporter Luciferase Assay (IL-13 stimulated HaCaT keratinocyte NanoLuc reporter cells); type: cell-based; settings: IL-13 stimulated HaCaT STAT6 NanoLuc reporter cells; read-out: Reporter EC50
T1 construct: stably transfected HaCaT keratinocyte cell line, which expresses NanoLuc luciferase reporter gene under the transcriptional control of the STAT6 responsive promoter; endogenous in cells; host or cells: HaCaT keratinocyte reporter cell line (stably transfected with a NanoLuc reporter)
T1 sequence (P42226 1-847): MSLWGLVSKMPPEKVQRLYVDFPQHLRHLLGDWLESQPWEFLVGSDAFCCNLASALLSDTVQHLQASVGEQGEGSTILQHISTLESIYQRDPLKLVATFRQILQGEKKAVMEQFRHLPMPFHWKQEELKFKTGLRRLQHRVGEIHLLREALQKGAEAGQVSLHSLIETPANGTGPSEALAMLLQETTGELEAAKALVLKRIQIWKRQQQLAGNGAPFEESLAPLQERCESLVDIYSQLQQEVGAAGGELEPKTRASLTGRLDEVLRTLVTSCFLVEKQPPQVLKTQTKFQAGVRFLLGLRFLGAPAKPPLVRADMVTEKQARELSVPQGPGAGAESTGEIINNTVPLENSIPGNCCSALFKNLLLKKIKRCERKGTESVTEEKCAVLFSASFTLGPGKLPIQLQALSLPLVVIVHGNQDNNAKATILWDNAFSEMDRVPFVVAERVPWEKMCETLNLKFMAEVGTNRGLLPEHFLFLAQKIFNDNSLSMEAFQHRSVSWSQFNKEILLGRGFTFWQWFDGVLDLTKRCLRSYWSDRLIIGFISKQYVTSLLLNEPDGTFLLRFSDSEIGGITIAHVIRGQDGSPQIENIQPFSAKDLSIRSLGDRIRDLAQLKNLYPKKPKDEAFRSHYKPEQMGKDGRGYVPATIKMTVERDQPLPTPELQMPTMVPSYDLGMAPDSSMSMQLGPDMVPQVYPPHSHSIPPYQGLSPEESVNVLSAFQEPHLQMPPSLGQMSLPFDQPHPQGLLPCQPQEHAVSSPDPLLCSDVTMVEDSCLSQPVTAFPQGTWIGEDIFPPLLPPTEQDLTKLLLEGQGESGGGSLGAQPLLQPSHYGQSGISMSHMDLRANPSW
Outline: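 Luminescence from a NanoLuc reporter driven by the STAT6-responsive IL-13Ra2 promoter in HaCaT keratinocytes serves as the read-out. Compounds are given 2 h before a 4 h stimulation with 0.12 nM IL-13.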

[2] = tested on: CCL17 secretion in peripheral human whole blood; experiment: Human Whole Blood (HWB) CCL17 TR-FRET Assay (IL-13 stimulated CCL17 secretion); type: cell-based; settings: Homo sapiens, 48 h, human whole blood, 10 ng/mL IL13, 48 hours
Outline: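 IC50 comes from serum CCL17 measured by a TR-FRET sandwich assay (16 h at room temperature, 665/615 nm ratio). Beforehand, blood in sodium heparin was exposed to an 11-point, 3-fold compound series for 2 h at 37°C and then to 10 ng/mL IL-13 for 48 h.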

| SMILES | EC50 [1] | IC50 [2] |
| --- | --- | --- |
| CC(C)n1nc(C(=O)NCc2ccc(NC(=O)C3CCN(C)CC3)c(F)c2)c2c1[C@@H](C)CN(c1ccc(C(=O)N(C)C)cn1)C2 [Example 587, (S)-5-(5-(dimethylcarbamoyl)pyridin-2-yl)-N-(3-fluoro-4-(1-methylpiperidine-4-carboxamido)benzyl)-1-isopropyl-7-methyl-4,5,6,7-tetrahydro-1H-pyrazolo[4,3-c]pyridine-3-carboxamide] | 14 nM | 122 nM |
| COc1cc(NC(=O)N2CCNCC2)c(F)cc1CNC(=O)c1nn(C(C)C)c2c1CN(c1ccc(C(=O)N(C)C)cc1)C[C@@H]2C [Example 588, (S)-5-(4-(dimethylcarbamoyl)phenyl)-N-(5-fluoro-2-methoxy-4-(piperazine-1-carboxamido)benzyl)-1-isopropyl-7-methyl-4,5,6,7-tetrahydro-1H-pyrazolo[4,3-c]pyridine-3-carboxamide] | 75 nM | 875 nM |
| CC(C)n1nc(C(=O)NCc2ccc(NC(=O)N3CCNCC3)cc2F)c2c1[C@@H](C)CN(c1ccc(C(=O)N(C)C)cc1)C2 [Example 589, (S)-5-(4-(dimethylcarbamoyl)phenyl)-N-(2-fluoro-4-(piperazine-1-carboxamido)benzyl)-1-isopropyl-7-methyl-4,5,6,7-tetrahydro-1H-pyrazolo[4,3-c]pyridine-3-carboxamide] | 3 nM | 19 nM |
| CC(C)n1nc(C(=O)NCc2ccc(NC(=O)N3CCC(F)(F)C3)cc2)c2c1[C@@H](C)CN(c1ccc(C(=O)N(C)C)cn1)C2 [Example 590, (S)-N-(4-(3,3-difluoropyrrolidine-1-carboxamido)benzyl)-5-(5-(dimethylcarbamoyl)pyridin-2-yl)-1-isopropyl-7-methyl-4,5,6,7-tetrahydro-1H-pyrazolo[4,3-c]pyridine-3-carboxamide] | 0.4 nM | 10 nM |
| CC(C)n1nc(C(=O)NCc2ccc(NC(=O)N3CCC3)cc2)c2c1[C@@H](C)CN(c1ccc(C(=O)N(C)C)cn1)C2 [Example 591, (S)-N-(4-(azetidine-1-carboxamido)benzyl)-5-(5-(dimethylcarbamoyl)pyridin-2-yl)-1-isopropyl-7-methyl-4,5,6,7-tetrahydro-1H-pyrazolo[4,3-c]pyridine-3-carboxamide] | 1 nM | 10 nM |
| CC(C)n1nc(C(=O)NCc2ccc(NC(=O)N3CCC(C)(O)CC3)cc2)c2c1[C@@H](C)CN(c1ccc(C(=O)N(C)C)cn1)C2 [Example 592, (S)-5-(5-(dimethylcarbamoyl)pyridin-2-yl)-N-(4-(4-hydroxy-4-methylpiperidine-1-carboxamido)benzyl)-1-isopropyl-7-methyl-4,5,6,7-tetrahydro-1H-pyrazolo[4,3-c]pyridine-3-carboxamide] | 1 nM | 9 nM |
| CC(C)n1nc(C(=O)NCc2ccc(NC(=O)N3CCC(C)(C#N)CC3)cc2)c2c1[C@@H](C)CN(c1ccc(C(=O)N(C)C)cn1)C2 [Example 593, (S)-N-(4-(4-cyano-4-methylpiperidine-1-carboxamido)benzyl)-5-(5-(dimethylcarbamoyl)pyridin-2-yl)-1-isopropyl-7-methyl-4,5,6,7-tetrahydro-1H-pyrazolo[4,3-c]pyridine-3-carboxamide] | 1 nM | 12 nM |
| CC(C)n1nc(C(=O)NCc2ccc(NC(=O)N3CCN(C)CC3)cc2)c2c1[C@@H](C)CN(c1ccc(-n3ccccc3=O)cc1)C2 [Example 594, (S)-1-isopropyl-7-methyl-N-(4-(4-methylpiperazine-1-carboxamido)benzyl)-5-(4-(2-oxopyridin-1(2H)-yl)phenyl)-4,5,6,7-tetrahydro-1H-pyrazolo[4,3-c]pyridine-3-carboxamide] | 2 nM | 25 nM |
| CC(C)n1nc(C(=O)NCc2ccc(NC(=O)N3CC4(CNC4)C3)c(F)c2)c2c1[C@@H](C)CN(c1ccc(C(=O)N(C)C)cc1)C2 [Example 595, (S)-5-(4-(dimethylcarbamoyl)phenyl)-N-(3-fluoro-4-(2,6-diazaspiro[3.3]heptane-2-carboxamido)benzyl)-1-isopropyl-7-methyl-4,5,6,7-tetrahydro-1H-pyrazolo[4,3-c]pyridine-3-carboxamide] | 64 nM | 83 nM |
| CC(C)n1nc(C(=O)NCc2ccc(NC(=O)N3CCNCC3)c(Cl)c2)c2c1[C@@H](C)CN(c1ccc(C(=O)N(C)C)cc1)C2 [Example 596, (S)-N-(3-chloro-4-(piperazine-1-carboxamido)benzyl)-5-(4-(dimethylcarbamoyl)phenyl)-1-isopropyl-7-methyl-4,5,6,7-tetrahydro-1H-pyrazolo[4,3-c]pyridine-3-carboxamide] | 3 nM | 45 nM |

Other lines, results leading:

| EC50 [1] | IC50 [2] | SMILES |
| --- | --- | --- |
| 4 nM | 28 nM | CNC1CN(C(=O)Nc2ccc(CNC(=O)c3nn(C(C)C)c4c3CN(c3ccc(C(=O)N(C)C)cc3)C[C@@H]4C)cc2F)C1 [Example 597, (S)-5-(4-(dimethylcarbamoyl)phenyl)-N-(3-fluoro-4-(3-(methylamino)azetidine-1-carboxamido)benzyl)-1-isopropyl-7-methyl-4,5,6,7-tetrahydro-1H-pyrazolo[4,3-c]pyridine-3-carboxamide] |
| 1 nM | 13 nM | CC(C)n1nc(C(=O)NCc2ccc(NC(=O)N(C)CC(F)F)cc2)c2c1[C@@H](C)CN(c1ccc(C(=O)N(C)C)cn1)C2 [Example 598, (S)-N-(4-(3-(2,2-difluoroethyl)-3-methylureido)benzyl)-5-(5-(dimethylcarbamoyl)pyridin-2-yl)-1-isopropyl-7-methyl-4,5,6,7-tetrahydro-1H-pyrazolo[4,3-c]pyridine-3-carboxamide] |
| 1 nM | 12 nM | CC(C)n1nc(C(=O)NCc2ccc(NC(=O)N3CC(F)(F)C3)cc2)c2c1[C@@H](C)CN(c1ccc(C(=O)N(C)C)cn1)C2 [Example 599, (S)-N-(4-(3,3-difluoroazetidine-1-carboxamido)benzyl)-5-(5-(dimethylcarbamoyl)pyridin-2-yl)-1-isopropyl-7-methyl-4,5,6,7-tetrahydro-1H-pyrazolo[4,3-c]pyridine-3-carboxamide] |
| 312 nM | 2100 nM | CC(C)n1nc(C(=O)NCc2ccc(C(=O)NC3CCN(C)CC3)cc2)c2c1[C@@H](C)CN(c1ccc(C(=O)N(C)C)cn1)C2 [Example 601, (S)-5-(5-(dimethylcarbamoyl)pyridin-2-yl)-1-isopropyl-7-methyl-N-(4-((1-methylpiperidin-4-yl)carbamoyl)benzyl)-4,5,6,7-tetrahydro-1H-pyrazolo[4,3-c]pyridine-3-carboxamide] |
| 1 nM | 14 nM | CC(C)n1nc(C(=O)NCc2ccc(NC(=O)N3CCC4(CC3)CCN4C)c(F)c2)c2c1[C@@H](C)CN(c1ccc(C(=O)N(C)C)cn1)C2 [Example 602, (S)-5-(5-(dimethylcarbamoyl)pyridin-2-yl)-N-(3-fluoro-4-(1-methyl-1,7-diazaspiro[3.5]nonane-7-carboxamido)benzyl)-1-isopropyl-7-methyl-4,5,6,7-tetrahydro-1H-pyrazolo[4,3-c]pyridine-3-carboxamide] |
| 3 nM | 31 nM | CC(C)n1nc(C(=O)NCc2ccc(NC(=O)N3CC4(CCN(C)C4)C3)c(F)c2)c2c1[C@@H](C)CN(c1ccc(C(=O)N(C)C)cn1)C2 [Example 603, (S)-5-(5-(dimethylcarbamoyl)pyridin-2-yl)-N-(3-fluoro-4-(6-methyl-2,6-diazaspiro[3.4]octane-2-carboxamido)benzyl)-1-isopropyl-7-methyl-4,5,6,7-tetrahydro-1H-pyrazolo[4,3-c]pyridine-3-carboxamide] |
| 4 nM | 29 nM | CC(C)n1nc(C(=O)NCc2ccc(NC(=O)N3CC4(CN(C)C4)C3)c(F)c2)c2c1[C@@H](C)CN(c1ccc(C(=O)N(C)C)cn1)C2 [Example 604, (S)-5-(5-(dimethylcarbamoyl)pyridin-2-yl)-N-(3-fluoro-4-(6-methyl-2,6-diazaspiro[3.3]heptane-2-carboxamido)benzyl)-1-isopropyl-7-methyl-4,5,6,7-tetrahydro-1H-pyrazolo[4,3-c]pyridine-3-carboxamide] |

Reference: patent US20250320213A1, “Nitrogen-Containing Heterocyclic Compounds” (Pfizer Inc., priority 2024, published 2025)
